Patent US20170002011A1, “BENZENE SULFONAMIDES AS CCR9 INHIBITORS” (NORGINE B.V., priority 2013, published 2017)

What was measured:
[1] = target: T1, CCR9 (Homo sapiens, UniProt P51686); test: FLIPR calcium flux assay using MOLT4 cells (TECK stimulation); format: cell-based; set-up: endogenous in cells; host or cells: MOLT4 (human T-cell line); details: MOLT4 cells (a human T-cell line); Ki determined from IC50 of TECK-induced intracellular calcium increase
T1 sequence (P51686 1-369): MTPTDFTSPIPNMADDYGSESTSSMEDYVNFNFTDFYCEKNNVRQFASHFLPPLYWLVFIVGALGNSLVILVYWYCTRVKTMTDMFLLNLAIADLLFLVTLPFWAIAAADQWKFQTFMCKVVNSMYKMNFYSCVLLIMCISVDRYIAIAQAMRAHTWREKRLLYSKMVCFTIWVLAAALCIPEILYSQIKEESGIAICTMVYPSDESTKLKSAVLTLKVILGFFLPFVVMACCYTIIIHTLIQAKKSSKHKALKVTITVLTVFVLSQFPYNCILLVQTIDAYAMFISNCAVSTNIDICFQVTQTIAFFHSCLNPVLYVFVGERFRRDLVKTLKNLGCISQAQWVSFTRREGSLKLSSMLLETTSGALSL
Description: Biological Activity: FLIPR Assay Using MOLT4 Cells
A calcium flux assay was used to determine the ability of the compounds to interfere with the binding between CCR9 and its chemokine ligand (TECK) in MOLT4 cells (a human T-cell line). MOLT4 cells were seeded (100,000 cells/well) in coming cell culture plates (Cat #3603) in assay buffer (lx HBSS, 20 mM HEPES) containing 2.5 mM Probenecid. The plate was centrifuged at 1200 rpm for 3 minutes and incubated at 37° C./5% CO2 for 2 hours. A 0.3× Fluo-4 NW calcium dye was prepared in assay buffer containing 5 mM Probenecid and stored in the dark. Each well was loaded with 25 μL of 0.3× Fluo-4 NW calcium dye and incubated at 37 C/5% CO2 for 60 minutes and then at room temperature for 30 minutes. A half-log serially diluted concentration response curve was prepared at a 4× concentration for each (10 μM-0.1 nM final assay concentration) and 25 μL of the compound then transferred to the cells (100 μL final volume) for 60 minutes prior to stimulation (30 minutes at 37° C./5% CO2 and 30 minutes at room temperature). TECK was diluted to 5× its EC50 in assay buffer (containing 0.1% [w/v] bovine serum albumin [BSA]) and 25 μL dispensed through the FLIPR instrument to stimulate the cells (125 μL final volume). The increased in intracellular calcium levels was measured with the FLIPR instrument. The potency of the compound as CCR9 antagonist was calculated as an IC50 using GraphPad Prism software (variable slope four parameter). The Ki of the compound was determined from the IC50 values using the following equation.
(§1) Ki calculation: IC50/1+(Agonist (TECK) conc. used in assay/EC50 of agonist (TECK) generated on day of experiment)

[2] = target: T1, CCR9; test: FLIPR calcium flux assay using hCCR9 over expressed cells (TECK stimulation); format: cell-based; set-up: expressed in transfected cells; host or cells: Chem-1 cells overexpressing hCCR9; details: Chem1-hCCR9 overexpressing cells; Ki determined from IC50 of TECK-induced intracellular calcium increase
Description: Biological Activity: FLIPR Assay Using hCCR9 Over Expressed Cells
A calcium flux assay was used to determine the ability of the compounds to interfere with the binding between CCR9 and its chemokine ligand (TECK) in Cheml-hCCR9 overexpressing cells. hCCR9 overexpressing cells were seeded (25,000 cells/well) into black Poly-D-Lysine coated clear bottom 96-well plates (BD Biosciences, Cat #356640) and incubated overnight at 37° C./5% CO2 in a humidified incubator. Media was aspirated and cells washed twice with 100 μL assay buffer (1×HBSS, 20 mM HEPES) containing 2.5 mM Probenecid. A 0.3× Fluo-4 NW calcium dye was prepared in assay buffer containing 5 mM Probenecid and stored in the dark. Each well was loaded with 100 μL of 0.3× Fluo-4 NW calcium dye and incubated at 37° C./5% CO2 for 60 minutes and then at room temperature for 30 minutes. A half-log serially diluted concentration response curve was prepared at a 3× final assay concentration for each compound (10 μM−0.1 nM final assay concentration) and 50 μL of the compound then transferred to the cells (150 μL final volume) for 60 minutes prior to stimulation (30 minutes at 37° C./5% CO2 and 30 minutes at room temperature). TECK was diluted to 4× its ECso in assay buffer (containing 0.1% [w/v] bovine serum albumin[BSA]) and 50 μL dispensed through the fluorometric imaging plate reader (FLIPR) instrument to stimulate the cells (200 μL final volume). The increase in intracellular calcium levels was measured with the FLIPR instrument. The potency of the compound as a CCR9 antagonist was calculated as an IC50 using GraphPad Prism software (variable slope four parameter). The Ki of the compound was determined from the IC50 values using the following equation.
as §1

Row | Ki [1] [nM] | Ki [2] [nM] | SMILES
1 | 37 | 121 | Cc1ncccc1-c1cc2c(C#N)ccc(NS(=O)(=O)c3ccc(C(C)(C)C)cc3)n2n1 [Compound 204]
2 | 64 | 128 | Cc1ccc(-c2cc3c(C#N)ccc(NS(=O)(=O)c4ccc(C(C)(C)C)cc4)n3n2)cn1 [Compound 206]
